Results as given in patent publication US6521623B1, “N,N'-disubstituted benzimidazolone derivatives with affinity at the serotonin and dopamine receptors” (Boehringer Ingelheim Pharma KG, priority 2000, dated 2003).
Like-named read-outs stand apart in the source and are kept apart here.

How the values were obtained:
5-HT1A [1] = target: T1, 5-HT1A (Homo sapiens, UniProt P08908); assay: 5-HT1 Functional Assay (cAMP) in CHO/5-HT1A cells; assay type: cell-based; design: expressed in transfected cells; host or cells: CHO/5-HT1A cells
T1 sequence (P08908 1-422): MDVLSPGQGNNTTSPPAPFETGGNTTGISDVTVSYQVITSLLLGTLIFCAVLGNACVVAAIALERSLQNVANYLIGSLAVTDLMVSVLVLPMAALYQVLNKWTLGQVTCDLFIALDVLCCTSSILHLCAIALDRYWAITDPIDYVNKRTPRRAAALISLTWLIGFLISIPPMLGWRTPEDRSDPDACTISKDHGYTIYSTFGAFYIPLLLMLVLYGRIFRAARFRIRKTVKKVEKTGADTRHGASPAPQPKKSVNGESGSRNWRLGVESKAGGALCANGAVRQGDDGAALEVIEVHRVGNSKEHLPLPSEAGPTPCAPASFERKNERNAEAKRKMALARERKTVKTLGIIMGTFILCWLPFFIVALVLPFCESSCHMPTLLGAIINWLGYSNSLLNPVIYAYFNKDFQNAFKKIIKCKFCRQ
Description: 5-HT1 Functional Assay (cAMP)
CHO/5-HT1A cells were random seeded at a density of about 200,000/well in 24 well plates the day prior to the experiment. On the day of the experiment, cells were pretreated for 15 minutes at 37° C. with 500 μM isobutylmethylxantine (IBMX) dissolved in culture medium without serum. Wells were then divided in different groups in duplicate as follows: control, 10 μM FSK, 10 μM FSK+1 μM 5-HT as positive standard and 10 μM FSK+10 μM of the different compound under evaluation. Sample solutions were added and incubated for additional 15 minutes at 37° C. After incubation, the medium was aspirated and the reaction stopped by adding 200 μl of lysis buffer. Plates were shaken for 5 minutes, then the lysate was removed and samples were stored at 4° C. until the day of the assay. For the cAMP evaluation, samples were properly diluted and the cAMP content was measured by an enzyme immunoassay system.

5-HT1A [2] = target: T1, 5-HT1A; assay: 5HT1A Radioligand Receptor Binding Assay ([3H]-8-OH-DPAT, CHO cell membranes); design: expressed in transfected cells; host or cells: CHO cells; conditions: for inhibition at 0.1 µM / 5-HT1A Receptor Binding Assay % inhibition (10^−7 M): compound 10^−7 M, singlicate, [3H]-8-OH-DPAT 0.6-0.7 nM
Description: 5HT1A Radioligand Receptor Binding Assay
Membranes from CHO cells, expressing 5-HT1A human receptors were suspended in incubation buffer.
Binding assays were performed in MultiProbe 204 pipetting system (Packard), according to a predetermined mapping, consistent with the software Screen. The compounds were tested in singlicate at one concentration (10^−7 M) in a total volume of 1000 μl. 980 μl of diluted membranes, 10 μl DMSO or unlabelled ligand and 10 μl of [^3H]-8-OH-DPAT (0.6-0.7 nM) were incubated for 60 minutes at 27° C. The reaction was stopped by rapid filtration through Tomtec Cell Harvester (48 wells) using Filtermat B (presoaked in 0.1% PEI) filters. Filters were washed with ice-cold 50 mM Tris-HCl (pH 7.4) buffer (9×700 μl), dried, covered with MeltiLex B/HS scintillator sheets (Wallac) and heated at 80° C. to 90° C. for about 10 minutes, transferred into plastic sample bags (Wallac), sealed, and put into 1024 Beta Plate scintillation counter (Wallac). Non-specific binding was determined in the presence of 5-HT (10^−5 M).
The specific radioligand binding to the receptor was defined by the difference between total binding and non-specific binding, determined in the presence of an excess of unlabelled ligand. Results were expressed as percentage of control specific binding obtained in the presence of the compounds. The affinity values (IC50) for the compounds were obtained by a nonlinear least squares regression analysis on the basis of a one binding site model.

D4 human receptors = target: T2, D4 human receptors (Homo sapiens, UniProt P21917); assay: D4 Radioligand Receptor Binding Assay ([3H] YM-09151-2, CHO cell membranes); conditions: compound 10^−7 M, singlicate, [3H] YM-09151-2 0.15-0.25 nM
T2 construct: expressed in transfected cells; host or cells: CHO cells
T2 sequence (P21917 1-419): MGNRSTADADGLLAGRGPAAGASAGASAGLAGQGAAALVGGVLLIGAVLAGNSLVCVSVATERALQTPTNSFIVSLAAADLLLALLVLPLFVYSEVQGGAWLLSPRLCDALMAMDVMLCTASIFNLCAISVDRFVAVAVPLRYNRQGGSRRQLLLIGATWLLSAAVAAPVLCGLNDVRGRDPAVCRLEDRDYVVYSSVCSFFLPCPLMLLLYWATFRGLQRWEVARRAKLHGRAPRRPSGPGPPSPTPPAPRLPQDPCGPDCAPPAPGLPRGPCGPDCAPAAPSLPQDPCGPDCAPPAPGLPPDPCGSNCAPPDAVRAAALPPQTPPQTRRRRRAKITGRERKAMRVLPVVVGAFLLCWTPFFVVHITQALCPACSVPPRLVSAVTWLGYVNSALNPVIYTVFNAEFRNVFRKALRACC
Description: D4 Radioligand Receptor Binding Assay
Membranes from CHO cells expressing D4 human receptors, were suspended in incubation buffer.
Binding assays were performed in MultiProbe 204 pipetting system (Packard), according to a predetermined mapping, consistent with the software Screen. The compounds were tested in singlicate at one concentration (10^−7 M) in a total volume of 1000 μl (980 μl of diluted membranes, 10 μl DMSO or unlabelled ligand and 10 μl of [^3H] YM-09151-2 (0.15-0.25 nM). After incubation for 120 minutes at 27° C., the reaction was stopped by rapid filtration through Tomtec Cell Harvester (48 wells) using Filtermat B (presoaked in 0.1% PEI) filters. Filters were washed with ice-cold 50 mM Tris-HCl (pH 7.4) buffer (9×700 μl), dried, covered with MeltiLex B/HS (Wallac) scintillator sheets and heated in oven at 80° C. to 90° C. for about 10 minutes, transferred into plastic sample bags (Wallac), sealed, and put into 1024 Beta Plate scintillation counter (Wallac). Non-specific binding was determined in the presence of clozapine dissolved in DMSO to a final concentration of 10^−5 M.
The specific radioligand binding to the receptor was defined by the difference between total binding and non-specific binding, determined in the presence of an excess of unlabelled ligand. Results were expressed as percentage of control specific binding obtained in the presence of the compounds.

[3] = [3H]-8-OH-DPAT, CHO membranes, human 5-HT1A, read-out: 5-HT1A Receptor Binding IC50

Structure (SMILES): COCCn1c(=O)n(C/C=C/CN2CCN(c3cccc(C(F)(F)F)c3)CC2)c2ccccc21 [Compound 301]
- inhibition at 10 µM (5-HT1A [1]): 83%
- IC50 (5-HT1A [2]; [3]): 2.6 nM

Structure (SMILES): O=c1n(CCN2CCOCC2)c2ccccc2n1CCN1CCN(c2cccc(C(F)(F)F)c2)CC1 [Compound 228]
- inhibition at 10 µM (5-HT1A [1]): 82%
- inhibition at 0.1 µM (D4 human receptors): 33%
- IC50 (5-HT1A [2]; [3]): 6 nM
- inhibition at 0.1 µM (5-HT1A [2]; CHO membranes, human 5-HT1A): 95%

Structure (SMILES): O=c1n(C/C=C/CN2CCN(c3cccc(Cl)c3)CC2)c2ccccc2n1CCN1CCOCC1 [Compound 348]
- inhibition at 10 µM (5-HT1A [1]): 57%
- IC50 (5-HT1A [2]; [3]): 3.5 nM

Structure (SMILES): CCNC(=O)OCCn1c(=O)n(C/C=C/CN2CCN(c3cccc(C(F)(F)F)c3)CC2)c2ccccc21 [Compound 420]
- inhibition at 10 µM (5-HT1A [1]): 87%
- IC50 (5-HT1A [2]; [3]): 1.8 nM

Structure (SMILES): CS(=O)(=O)NCCn1c(=O)n(C/C=C/CN2CCN(c3cccc(C(F)(F)F)c3)CC2)c2ccccc21 [Compound 525]
- inhibition at 10 µM (5-HT1A [1]): 87%
- IC50 (5-HT1A [2]; [3]): 1.5 nM

Structure (SMILES): O=c1n(C/C=C/CN2CCN(c3cccc(C(F)(F)F)c3)CC2)c2ccccc2n1CCO [Compound 386]
- inhibition at 10 µM (5-HT1A [1]): 82%
- IC50 (5-HT1A [2]; [3]): 6.7 nM

Structure (SMILES): COCCn1c(=O)n(C/C=C\CN2CCN(c3cccc(C(F)(F)F)c3)CC2)c2ccccc21 [Compound 284]
- inhibition at 10 µM (5-HT1A [1]): 82%
- IC50 (5-HT1A [2]; [3]): 4.9 nM

Structure (SMILES): CC(=O)NCCn1c(=O)n(C/C=C/CN2CCN(c3cccc(C(F)(F)F)c3)CC2)c2ccccc21 [Compound 481]
- inhibition at 10 µM (5-HT1A [1]): 82%
- IC50 (5-HT1A [2]; [3]): 11 nM

Structure (SMILES): CCNC(=O)OCCn1c(=O)n(C/C=C/CN2CC=C(c3ccccc3)CC2)c2ccccc21 [Compound 421]
- inhibition at 10 µM (5-HT1A [1]): 56%
- IC50 (5-HT1A [2]; [3]): 0.66 nM

Structure (SMILES): CS(=O)(=O)NCCn1c(=O)n(C/C=C\CN2CCN(c3cccc(Cl)c3)CC2)c2ccccc21 [Compound 499]
- inhibition at 10 µM (5-HT1A [1]): 74%
- IC50 (5-HT1A [2]; [3]): 5 nM

Structure (SMILES): O=c1n(C/C=C/CN2CCN(c3cccc(Cl)c3)CC2)c2ccccc2n1CCO [Compound 382]
- inhibition at 10 µM (5-HT1A [1]): 64%
- inhibition at 0.1 µM (D4 human receptors): 39%
- IC50 (5-HT1A [2]; [3]): 11 nM
- inhibition at 0.1 µM (5-HT1A [2]; CHO membranes, human 5-HT1A): 88%

Structure (SMILES): CCNC(=O)OCCn1c(=O)n(C/C=C\CN2CC=C(c3ccccc3)CC2)c2ccccc21 [Compound 404]
- inhibition at 10 µM (5-HT1A [1]): 60%
- inhibition at 0.1 µM (D4 human receptors): 34%
- IC50 (5-HT1A [2]; [3]): 2.1 nM
- inhibition at 0.1 µM (5-HT1A [2]; CHO membranes, human 5-HT1A): 95%

Structure (SMILES): COCCn1c(=O)n(C/C=C\CN2CC=C(c3ccccc3)CC2)c2ccccc21 [Compound 285]
- inhibition at 10 µM (5-HT1A [1]): 47%
- inhibition at 0.1 µM (D4 human receptors): 32%
- IC50 (5-HT1A [2]): 5.2 nM
- inhibition at 0.1 µM (5-HT1A [2]; CHO membranes, human 5-HT1A): 96%

Structure (SMILES): CCNC(=O)OCCn1c(=O)n(CCCCN2CCN(c3ccccc3Cl)CC2)c2ccccc21 [Compound 96]
- D4 Receptor Binding Assay % inhibition (10^−7 M) (D4 human receptors): 72%
- 5-HT1A Receptor Binding Assay % inhibition (10^−7 M) (5-HT1A [2]; CHO membranes, human 5-HT1A): 92%

Structure (SMILES): O=c1n(CCN2CCCCC2)c2ccccc2n1CCN1CCN(c2cccc(C(F)(F)F)c2)CC1 [Compound 149]
- D4 Receptor Binding Assay % inhibition (10^−7 M) (D4 human receptors): 35%
- 5-HT1A Receptor Binding Assay % inhibition (10^−7 M) (5-HT1A [2]; CHO membranes, human 5-HT1A): 88%

Structure (SMILES): O=c1n(CCO)c2ccccc2n1CCN1CCN(c2ccc(Cl)c(Cl)c2)CC1 [Compound 189]
- D4 Receptor Binding Assay % inhibition (10^−7 M) (D4 human receptors): 99%
- 5-HT1A Receptor Binding Assay % inhibition (10^−7 M) (5-HT1A [2]; CHO membranes, human 5-HT1A): 54%

Structure (SMILES): O=c1n(C/C=C/CN2CCN(c3ncccn3)CC2)c2ccccc2n1CCN1CCCCC1 [Compound 332]
- D4 Receptor Binding Assay % inhibition (10^−7 M) (D4 human receptors): 85%
- 5-HT1A Receptor Binding Assay % inhibition (10^−7 M) (5-HT1A [2]; CHO membranes, human 5-HT1A): 78%

Structure (SMILES): O=c1n(CCCCN2CCN(c3ccccc3)CC2)c2ccccc2n1CCN1CCCCC1 [Compound 20]
- D4 Receptor Binding Assay % inhibition (10^−7 M) (D4 human receptors): 60%
- 5-HT1A Receptor Binding Assay % inhibition (10^−7 M) (5-HT1A [2]; CHO membranes, human 5-HT1A): 50%

Structure (SMILES): COCCn1c(=O)n(CCCCN2CCN(c3ccccc3OC)CC2)c2ccccc21 [Compound 19]
- D4 Receptor Binding Assay % inhibition (10^−7 M) (D4 human receptors): 32%
- 5-HT1A Receptor Binding Assay % inhibition (10^−7 M) (5-HT1A [2]; CHO membranes, human 5-HT1A): 69%

Structure (SMILES): COCCn1c(=O)n(CCCCN2CCN(c3ccccc3)CC2)c2ccccc21 [Compound 1]
- D4 Receptor Binding Assay % inhibition (10^−7 M) (D4 human receptors): 38%
- 5-HT1A Receptor Binding Assay % inhibition (10^−7 M) (5-HT1A [2]; CHO membranes, human 5-HT1A): 56%

Structure (SMILES): CCNC(=O)OCCn1c(=O)n(C/C=C\CN2CCN(c3cccc(C(F)(F)F)c3)CC2)c2ccccc21 [Compound 403]
- inhibition at 10 µM (5-HT1A [1]): 84%
- IC50 (5-HT1A [2]; [3]): 5.5 nM

Structure (SMILES): O=c1n(CCCCN2CCN(c3cccc(C(F)(F)F)c3)CC2)c2ccccc2n1CCN1CCCCC1 [Compound 28]
- D4 Receptor Binding Assay % inhibition (10^−7 M) (D4 human receptors): 35%
- 5-HT1A Receptor Binding Assay % inhibition (10^−7 M) (5-HT1A [2]; CHO membranes, human 5-HT1A): 89%

Structure (SMILES): CCNC(=O)OCCn1c(=O)n(CCCCN2CCN(c3cccc(C)c3)CC2)c2ccccc21 [Compound 94]
- D4 Receptor Binding Assay % inhibition (10^−7 M) (D4 human receptors): 72%
- 5-HT1A Receptor Binding Assay % inhibition (10^−7 M) (5-HT1A [2]; CHO membranes, human 5-HT1A): 88%

Structure (SMILES): O=c1n(C/C=C\CN2CC=C(c3ccccc3)CC2)c2ccccc2n1CCN1CCCCC1 [Compound 319]
- D4 Receptor Binding Assay % inhibition (10^−7 M) (D4 human receptors): 70%
- 5-HT1A Receptor Binding Assay % inhibition (10^−7 M) (5-HT1A [2]; CHO membranes, human 5-HT1A): 94%
